# Data reported in BindingDB's records for doi:10.1021/acs.jmedchem.5b00964 (Peking Union Medical College, 2015).
# Target: T1, X-box-binding protein 1 (Homo sapiens, UniProt P17861)
# T1 sequence (P17861 whole entry): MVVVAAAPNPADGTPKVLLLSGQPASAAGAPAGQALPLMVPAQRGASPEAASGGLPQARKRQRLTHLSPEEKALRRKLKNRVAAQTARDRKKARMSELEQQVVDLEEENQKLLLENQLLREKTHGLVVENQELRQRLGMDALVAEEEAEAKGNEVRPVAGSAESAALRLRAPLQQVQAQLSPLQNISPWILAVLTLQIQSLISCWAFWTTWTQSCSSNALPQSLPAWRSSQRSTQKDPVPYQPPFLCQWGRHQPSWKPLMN
# Test: Transactivation of XBP1 (unknown origin) transfected in rat IEC-6 cells after 48 hrs by dual luciferase reporter gene assay
row,EC50,Structure (SMILES)
1,220 nM,CC(=O)CC1c2c(ccc3c2OCO3)C=C2c3cc4c(cc3CCN21)OCO4 (stereo not drawn)
2,210 nM,C=C(C(C)=O)c1c2c3c(ccc2c(C)c2[n+]1CCc1cc4c(cc1-2)OCO4)OCO3

row,Structure (SMILES),EC50
1,C1=C2c3cc4c(cc3CCN2Cc2c1ccc1c2OCO1)OCO4,2.3 nM
